Test results taken from patent US10669240B2, “5-substituted indazole-3-carboxamides and preparation and use thereof” (Samumed, LLC, priority 2014, dated 2020).

Key:
DYRK1A = DYRK1A (Homo sapiens (Human), UniProt Q13627); test: DYRK1A activity Tau assay: pSer396 Tau in SH-SY5Y cells by ELISA / western blot; assay type: cell-based; details: overnight (16-18 h) exposure
[1] = system: Wnt activity (Wnt-responsive SP5 promoter luciferase reporter in SW480 cells); test: Wnt activity reporter assay: SW480 cells with SP5 promoter-driven firefly luciferase; assay type: cell-based; details: Homo sapiens, 24 h after compound addition, read-out: Wnt inhibition
Description: The above synthesized compounds were screened using the assay procedure for Wnt activity described below.
Reporter cell lines were generated by stably transducing cells of cancer cell lines (e.g., colon cancer) with a lentiviral construct that include a Wnt-responsive promoter driving expression of the firefly luciferase gene.
Lentiviral constructs were made in which the SP5 promoter, a promoter having eight TCF/LEF binding sites derived from the SP5 promoter, was linked upstream of the firefly luciferase gene. The lentiviral constructs included a hygromycin resistance gene as a selectable marker. The SP5 promoter construct was used to transduce SW480 cells, a colon cancer cell line having a mutated APC gene that generates a truncated APC protein, leading to de-regulated accumulation of β-catenin.
Cultured SW480 cells bearing a reporter construct were distributed at approximately 10,000 cells per well into 384 well multiwell plates. Compounds were then added to the wells in half-log dilutions using a three micromolar top concentration. A series of control wells for each cell type received only buffer and compound solvent. Twenty-four hours after the addition of compound, reporter activity for luciferases was assayed, for example, by addition of the BrightGlo luminescence reagent (Promega) and the Victor3 plate reader (Perkin Elmer). Readings were normalized to DMSO only treated cells, and normalized activities were then used for the IC50 calculations.

Row | SMILES | EC50 (DYRK1A) | IC50 [1]
1 | CN1CCC(NC(=O)c2n[nH]c3ccc(-c4cc(CN5CCCCC5)cc(F)c4F)cc23)CC1 [Compound 272, 5-(2,3-Difluoro-5-(piperidin-1-ylmethyl)phenyl)-N-(1-methylpiperidin-4-yl)-1H-indazole-3-carboxamide] | 15 nM | 1700 nM
2 | O=C(Nc1ccc(CN2CCCC2)cc1)c1n[nH]c2ccc(-c3cccc(F)c3F)cc12 [Compound 1327, 5-(2,3-Difluorophenyl)-N-(4-(pyrrolidin-1-ylmethyl)phenyl)-1H-indazole-3-carboxamide] | 31 nM | 1500 nM
3 | CC(C)OCCCNC(=O)c1n[nH]c2ccc(-c3cccc(F)c3F)cc12 [Compound 1264, 5-(2,3-Difluorophenyl)-N-(3-isopropoxypropyl)-1H-indazole-3-carboxamide] | 263 nM | 2100 nM
4 | CN(C)[C@H]1CC[C@@H](NC(=O)c2n[nH]c3ccc(-c4cccnc4)cc23)CC1 [Compound 1287, N-((1s,4s)-4-(Dimethylamino)cyclohexyl)-5-(pyridin-3-yl)-1H-indazole-3-carboxamide] | 37 nM | > 10000 nM
5 | O=C(NC1CCN(CCF)CC1)c1n[nH]c2ccc(-c3cncc4ccccc34)cc12 [Compound 1297, N-(1-(2-Fluoroethyl)piperidin-4-yl)-5-(isoquinolin-4-yl)-1H-indazole-3-carboxamide] | 30 nM | 2200 nM
6 | O=C(N[C@@H]1C[C@@H]1c1ccccc1)c1n[nH]c2ccc(-c3cccnc3)cc12 [Compound 38, N-((1R,2R)-2-Phenylcyclopropyl)-5-(pyridin-3-yl)-1H-indazole-3-carboxamide] | 4 nM | 1570 nM
7 | O=C(N[C@@H]1C[C@@H]1c1ccccc1)c1n[nH]c2ccc(-c3cncc(CN4CCCCC4)c3)cc12 [Compound 39, N-((1R,2R)-2-Phenylcyclopropyl)-5-(5-(piperidin-1-ylmethyl)pyridin-3-yl)-1H-indazole-3-carboxamide] | 1 nM | 490 nM
8 | O=C(NC1CCN(CC2CC2)CC1)c1n[nH]c2ccc(-c3cncc(Cl)c3)cc12 [Compound 1313, 5-(5-Chloropyridin-3-yl)-N-(1-(cyclopropylmethyl)piperidin-4-yl)-1H-indazole-3-carboxamide] | 33 nM | 1800 nM
9 | CC(C)(C)N1CCC(NC(=O)c2n[nH]c3ccc(-c4cccnc4)cc23)CC1 [Compound 291, N-(1-(tert-Butyl)piperidin-4-yl)-5-(pyridin-3-yl)-1H-indazole-3-carboxamide] | 21 nM | 1010 nM
10 | NC1CN(c2cncc(-c3ccc4[nH]nc(C(=O)Nc5cccc(F)c5)c4c3)n2)C1 [Compound 1318, 5-(6-(3-Aminoazetidin-1-yl)pyrazin-2-yl)-N-(3-fluorophenyl)-1H-indazole-3-carboxamide] | 6 nM | 4000 nM
11 | O=C(NCc1ccccc1)c1n[nH]c2ccc(-c3cc(F)cc(CN4CCCCC4)c3)cc12 [Compound 29, N-Benzyl-5-(3-fluoro-5-(piperidin-1-ylmethyl)phenyl)-1H-indazole-3-carboxamide] | 117 nM | 3470 nM
12 | CN1CCC(NC(=O)c2n[nH]c3ccc(-c4cccnc4)cc23)CC1 [Compound 1, N-(1-Methylpiperidin-4-yl)-5-(pyridin-3-yl)-1H-indazole-3-carboxamide] | 65 nM | 1300 nM
13 | CN(C(=O)c1n[nH]c2ccc(-c3cncc(CN4CCCCC4)c3)cc12)c1cccnc1 [Compound 76, N-Methyl-5-(5-(piperidin-1-ylmethyl)pyridin-3-yl)-N-(pyridin-3-yl)-1H-indazole-3-carboxamide] | 990 nM | 6500 nM
14 | O=C(NC1(c2ccccc2)CC1)c1n[nH]c2ccc(-c3cncc(CN4CCC(F)(F)C4)c3)cc12 [Compound 35, 5-(5-((3,3-Difluoropyrrolidin-1-yl)methyl)pyridin-3-yl)-N-(1-phenylcyclopropyl)-1H-indazole-3-carboxamide] | 85 nM | 6390 nM
15 | CN1CCC(NC(=O)c2n[nH]c3ccc(-c4cnccc4C(F)(F)F)cc23)CC1 [Compound 1340, N-(1-Methylpiperidin-4-yl)-5-(4-(trifluoromethyl)pyridin-3-yl)-1H-indazole-3-carboxamide] | 2500 nM | 1800 nM
16 | COc1ccc(NC(=O)c2n[nH]c3ccc(-c4cncc(N5CC(N)C5)n4)cc23)cn1 [Compound 1334, 5-(6-(3-Aminoazetidin-1-yl)pyrazin-2-yl)-N-(6-methoxypyridin-3-yl)-1H-indazole-3-carboxamide] | 2 nM | 1500 nM
17 | CN1CCC(NC(=O)c2n[nH]c3ccc(-c4ccccc4F)cc23)CC1 [Compound 16, 5-(2-Fluorophenyl)-N-(1-methylpiperidin-4-yl)-1H-indazole-3-carboxamide] | 335 nM | 14600 nM

Row | SMILES | EC50 (DYRK1A) | IC50 [1]
18 | Cc1cc2[nH]nc(C(=O)Nc3cccnc3)c2cc1-c1cccnc1 [Compound 44, 6-Methyl-N,5-di(pyridin-3-yl)-1H-indazole-3-carboxamide] | 23 nM | 6120 nM
19 | O=C(Nc1ccc(CN2CCCC2)cc1)c1n[nH]c2ccc(-c3cncc(Cl)c3)cc12 [Compound 1330, 5-(5-Chloropyridin-3-yl)-N-(4-(pyrrolidin-1-ylmethyl)phenyl)-1H-indazole-3-carboxamide] | 3 nM | 5500 nM
20 | N[C@H]1CC[C@@H](NC(=O)c2n[nH]c3ccc(-c4cccnc4)cc23)CC1 [Compound 1285, N-((1s,4s)-4-Aminocyclohexyl)-5-(pyridin-3-yl)-1H-indazole-3-carboxamide] | 35 nM | > 10000 nM
21 | O=C(NCCN1CCCC1)c1n[nH]c2ccc(-c3cccc(F)c3F)cc12 [Compound 1166, 5-(2,3-Difluorophenyl)-N-(2-(pyrrolidin-1-yl)ethyl)-1H-indazole-3-carboxamide] | 79 nM | 2400 nM
22 | CC(C)OCCCNC(=O)c1n[nH]c2ccc(-c3cccnc3)cc12 [Compound 1261, N-(3-Isopropoxypropyl)-5-(pyridin-3-yl)-1H-indazole-3-carboxamide] | 5 nM | 1000 nM
23 | O=C(Nc1ncc(F)cc1F)c1n[nH]c2ccc(-c3cncc(CN4CCCCC4)c3)cc12 [Compound 58, N-(3,5-Difluoropyridin-2-yl)-5-(5-(piperidin-1-ylmethyl)pyridin-3-yl)-1H-indazole-3-carboxamide] | 3 nM | 4010 nM
24 | O=C(NC1(c2ccccc2)CC1)c1n[nH]c2ccc(-c3cncc(CN4CCC4)c3)cc12 [Compound 33, 5-(5-(Azetidin-1-ylmethyl)pyridin-3-yl)-N-(1-phenylcyclopropyl)-1H-indazole-3-carboxamide] | 63 nM | 6700 nM
25 | NC(=O)c1n[nH]c2ccc(-c3cncc(CN4CCCCC4)c3)cc12 [Compound 89, 5-(5-(Piperidin-1-ylmethyl)pyridin-3-yl)-1H-indazole-3-carboxamide] | 6 nM | 1960 nM
26 | O=C(NC1CC1)c1n[nH]c2ccc(-c3cccnc3)cc12 [Compound 6, N-Cyclopropyl-5-(pyridin-3-yl)-1H-indazole-3-carboxamide] | 22 nM | 5530 nM
27 | CN(C)[C@H]1CC[C@H](NC(=O)c2n[nH]c3ccc(-c4cccnc4)cc23)CC1 [Compound 1288, N-((1r,4r)-4-(Dimethylamino)cyclohexyl)-5-(pyridin-3-yl)-1H-indazole-3-carboxamide] | 1 nM | 1370 nM
28 | O=C(Nc1cc(CN2CCCC2)ccc1Cl)c1n[nH]c2ccc(-c3cccnc3)cc12 [Compound 1333, N-(2-Chloro-5-(pyrrolidin-1-ylmethyl)phenyl)-5-(pyridin-3-yl)-1H-indazole-3-carboxamide] | 9 nM | 5100 nM
29 | CN1CC(NC(=O)c2n[nH]c3ccc(-c4cccc(F)c4F)cc23)C1 [Compound 1272, 5-(2,3-Difluorophenyl)-N-(1-methylazetidin-3-yl)-1H-indazole-3-carboxamide] | 56 nM | 2200 nM
30 | Cc1ccc(-c2ccc3[nH]nc(C(=O)NCCCOC(C)C)c3c2)cn1 [Compound 1262, N-(3-Isopropoxypropyl)-5-(6-methylpyridin-3-yl)-1H-indazole-3-carboxamide] | 60 nM | 1800 nM
31 | O=C(NCc1cccc(F)c1)c1n[nH]c2ccc(-c3cncc(CN4CCCCC4)c3)cc12 [Compound 27, N-(3-Fluorobenzyl)-5-(5-(piperidin-1-ylmethyl)pyridin-3-yl)-1H-indazole-3-carboxamide] | 2 nM | 1760 nM
32 | O=C(Nc1ccccn1)c1n[nH]c2ccc(-c3cncc(CN4CCCCC4)c3)cc12 [Compound 56, 5-(5-(Piperidin-1-ylmethyl)pyridin-3-yl)-N-(pyridin-2-yl)-1H-indazole-3-carboxamide] | 3 nM | 1100 nM
33 | O=C(Nc1ccc(CN2CCCC2)cc1)c1n[nH]c2ccc(-c3cncnc3)cc12 [Compound 1328, 5-(Pyrimidin-5-yl)-N-(4-(pyrrolidin-1-ylmethyl)phenyl)-1H-indazole-3-carboxamide] | 4 nM | 3700 nM
34 | CC(C)(C)CN1CCC(NC(=O)c2n[nH]c3ccc(-c4cccnc4)cc23)CC1 [Compound 329, N-(1-Neopentylpiperidin-4-yl)-5-(pyridin-3-yl)-1H-indazole-3-carboxamide] | 7 nM | 4650 nM
